Results as given in US7563791B2, “Pyrrolotriazine derivatives useful for treating hyper-proliferative disorders and diseases associated with angiogenesis” (Bayer Pharmaceuticals Corporation, priority 2004, dated 2009).

What was measured:
Type in all cases: cell-based
[1] = system: histone 3 phosphorylation in colon carcinoma (HCT116); experiment: p-Histone3 assay: inhibition of histone 3 phosphorylation in HCT116; conditions: Homo sapiens, HCT-116, 24 h, HCT116, 24 hours compound treatment
Description: Compounds were assayed for the inhibition of histone 3 phosphorylation in colon carcinoma (HCT116). Briefly, 20,000 cells/well were seeded in a 96-well black-walled, poly-d-lysine plates in RPMI+10% FBS and incubated at 37° C. in 5% CO2 overnight. The following day, the cells were treated with compounds for 24 hours at 37° C. Following compound treatment; plates were centrifuged at 1000 rpm for 2 minutes and washed twice with 100 μl of cold sterile TBS. Cells were then fixed with cold 3.7% formaldehyde in TBS (4° C. for 1 hour) and then permeabolized with 0.1% Triton-X-100 in TBS (room temperature for 30 minutes). Plates were then washed with of 0.25% BSA-TBS and blocked with BSA solution for 1 hour at room temperature while shaking. The supernatant was removed and replaced with diluted primary antibody (anti-phospho-histone 3, serine 10, Cell Signaling) at 1:250 in 0.25% BSA-TBS and incubated overnight at 4° C. The plates were washed and treated with diluted secondary antibody (anti-rabbit Eu-labeled) at 1:10000 in 0.25% BSA-TBS (room temperature for 1 hour). The antibody solution was removed from each well and washed eight times. The wash buffer was replaced with 50 μl pre-warmed enhancement solution and mixed on the orbital shaker for 10 minutes. Fluorescence was detected with a Victor V Fluorescence Detector. The data are expressed as percent inhibition: % inhibition=100−((Signal with inhibitor-background)/(Signal without inhibitor-background))×100.

[2] = system: VEGFR stimulated HUVEC proliferation; experiment: BRDU growth factor stimulated proliferation of HUVEC (VEGF stimulation); conditions: Homo sapiens, 72 h, 80 ng/ml VEGF, 3 days, BrdU incorporation
Description: (§1) BRDU Growth Factor Stimulated Proliferation of HUVEC
(§2) Exponentially growing human umbilical vein endothelial cells (HUVEC; Cat# CC-2519A, Cambrex, Walkersville, Md.) were seeded at two thousand cells/well into Collagen IV-coated 96 well plates (Cat#35-4429, Becton Dickinson, Bedford, Mass.) in assay media containing RPMI-1640 (Cat#11875-093, Gibco, Carlsbad, Calif.), 0.5% charcoal-stripped serum (Cat# SH30068.03, HyClone, Logan, Utah), and 1% N-2 supplement (Cat#17502-048, Gibco, Carlsbad, Calif.). Fours hours after incubating the plates at 37° C. in 5% CO2, the cells were treated with different concentrations of compound (diluted in assay media with a final DMSO concentration=0.1%) and then were immediately stimulated with 80 ng/ml of vascular endothelial growth factor (VEGF, Cat#100-20, PeproTech, Rocky Hill, N.J.) or 1.5 ng/ml of basic fibroblast growth factor (bFGF, Catt#100-18B, PeproTech, Rocky Hill, N.J.). Treated cells were incubated for 3 days at 37° C. in 5% CO2. DNA synthesis was measured via the incorporation of bromodeoxyuridine (BrdU) into newly synthesized DNA using the Amersham Cell Proliferation BioTrack ELISA system (Cat# RPN250, Amersham, Piscataway, N.J.). Diluted BrdU solution (20 μl of stock BrdU diluted 1:20 fold into assay media) was added to each well and incubation proceeded for 6 hours at 37° C. in 5% CO2. The media was removed and the cells were fixed according to the specifications of the Amersham assay kit for 30 minutes at room temperature. After removing the fixative, blocking buffer (supplied by Amersham kit; 200 μl/well) was added and the plates were stored at 4° C. overnight. The blocking buffer was aspirated and peroxidase-labeled anti-BrdU antibody (supplied by Amersham kit; 100 μl/well) was added and incubated for 3 hours at room temperature. The plates were washed three times with wash buffer (supplied by Amersham kit; 300 μl/well/wash). Immediately following the washes, 100 μl of the TMB-substrate was dispensed into each well and the plates were further incubated for 30 minutes at room temperature. The reaction was terminated by the addition of 25 μl of 1M H2SO4. Plates were read immediately at 450 nm using a SpectraMAX 250 spectrophotometer plate reader (Molecular Devices, Sunnyvale, Calif.). The software utilized was SoftMAX pro v.2.4.1.

[3] = system: FGFR stimulated HUVEC proliferation; experiment: BRDU growth factor stimulated proliferation of HUVEC (bFGF stimulation); conditions: Homo sapiens, 72 h, 1.5 ng/ml bFGF, 3 days, BrdU incorporation
Description: as §1, §2

[4] = system: HCT116 cells; experiment: Tumor cell proliferation (Alamar Blue), HCT116; conditions: Homo sapiens, HCT-116, 72 h
In short: (§3)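 Cells seeded at 3.0×10^3/well in RPMI with 10% FBS for 16 h, then treated with compound (added medium held 40 μM to 18 nM compound, 0.4% DMSO) for 72 h at 37 °C, 5% CO2. Viability by Alamar Blue, 3 h, fluorescence 544/590 nm. IC50 by linear regression of log concentration versus percent inhibition.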

[5] = system: MDA-MB-231 cells; experiment: Tumor cell proliferation (Alamar Blue), MDA-MB-231; conditions: Homo sapiens, MDA-MB-231, 72 h
In short: as §3

[6] = system: VEGF stimulated Phospho-ERK in HUVEC; experiment: Growth factor stimulated p-ERK assay in HUVECs (VEGF stimulation, ERK1/2 Bioplex); conditions: Homo sapiens, compound 2 hrs, then 50 ng/ml VEGF 10 min; for inhibition at 0.1 µM: @ 100 nM
In short: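 HUVECs in serum-free RPMI 1640/0.1% BSA pretreated with compound 2 hrs, then stimulated 10 min with 50 ng/ml VEGF (or bFGF). Lysate phospho-ERK1/2 quantified by bead-based Bio-Plex immunoassay on Luminex.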

Row | SMILES | IC50 [1] | IC50 ([1]; bound given in μM) | IC50 [2] | IC50 [3] | IC50 ([4]; bounds given in μM) | IC50 ([5]; bounds given in μM) | IC50 [4] | IC50 [5] | inhibition at 0.1 µM [6] | inhibition at 1 µM ([6]; @ 1 μM)
1 | Nc1ncnn2cc(C(=O)NCC(F)(F)F)c(-c3ccc(NC(=O)Nc4ccc(F)c(C(F)(F)F)c4)cc3)c12 [Example 88, 4-amino-5-{4-[({[4-fluoro-3-(trifluoromethyl)phenyl]amino}carbonyl)amino]phenyl}-N-(2,2,2-trifluoroethyl)pyrrolo[2,1-f][1,2,4]triazine-6-carboxamide] | < 0.5 µM | – | – | – | – | – | – | – | – | –
2 | CCNC(=O)c1cn2ncnc(N)c2c1-c1ccc(NC(=O)Nc2cccc(C(F)(F)F)n2)cc1 [Example 176, 4-amino-N-ethyl-5-{4-[({[6-(trifluoromethyl)pyridin-2-yl]amino}carbonyl)amino]phenyl}pyrrolo[2,1-f][1,2,4]triazine-6-carboxamide] | < 0.5 µM | – | – | – | – | – | – | – | – | –
3 | CCOC(=O)c1cn2ncnc(N)c2c1-c1ccc(NC(=O)Nc2ccccc2C(F)(F)F)cc1 [Example 7, ethyl 4-amino-5-{4-[({[2-(trifluoromethyl)phenyl]amino}carbonyl)amino]phenyl}pyrrolo[2,1-f][1,2,4]triazine-6-carboxylate] | > 0.5 µM | < 1 µM | – | – | – | – | – | – | – | –
4 | COCCNC(=O)c1cn2ncnc(N)c2c1-c1ccc(NC(=O)Nc2cc(C(F)(F)F)ccc2F)cc1 [Example 167, 4-amino-5-{4-[({[2-fluoro-5-(trifluoromethyl)phenyl]amino}carbonyl)amino]phenyl}-N-(2-methoxyethyl)pyrrolo[2,1-f][1,2,4]triazine-6-carboxamide] | > 0.5 µM | < 1 µM | – | – | – | – | – | – | – | –
5 | N#Cc1cn2ncnc(N)c2c1-c1ccc(NC(=O)Nc2cc(F)cc(C(F)(F)F)c2)cc1 [Example 103, N-[4-(4-amino-6-cyanopyrrolo[2,1-f][1,2,4]triazin-5-yl)phenyl]-N′-[3-fluoro-5-(trifluoromethyl)phenyl]urea] | – | – | 10 to 100 nM | < 100 nM | 5 to 10 µM | 5 to 10 µM | – | – | – | –
6 | COCc1cn2ncnc(N)c2c1-c1ccc(NC(=O)Nc2cc(C(F)(F)F)ccn2)c(F)c1 [Example 247, N-{4-[4-amino-6-(methoxymethyl)pyrrolo[2,1-f][1,2,4]triazin-5-yl]-2-fluorophenyl}-N′-[4-(trifluoromethyl)pyridin-2-yl]urea] | – | – | 100 to 500 nM | 100 to 500 nM | 1.5 to 5 µM | 1.5 to 5 µM | – | – | – | –
7 | COCc1cn2ncnc(N)c2c1-c1ccc(NC(=O)Nc2cc(F)cc(C(F)(F)F)c2)cc1 [Example 102, N-{4-[4-amino-6-(methoxymethyl)pyrrolo[2,1-f][1,2,4]triazin-5-yl]phenyl}-N′-[3-fluoro-5-(trifluoromethyl)phenyl]urea] | – | – | 100 to 500 nM | 100 to 500 nM | 1.5 to 5 µM | 5 to 10 µM | – | – | – | –
8 | Nc1ncnn2cc(CO)c(-c3ccc(NC(=O)Nc4cc(C(F)(F)F)ccn4)c(F)c3)c12 [Example 243, N-{4-[4-amino-6-(hydroxymethyl)pyrrolo[2,1-f][1,2,4]triazin-5-yl]-2-fluorophenyl}-N′-[4-(trifluoromethyl)pyridin-2-yl]urea] | – | – | 10 to 100 nM | 100 to 500 nM | 1.5 to 5 µM | 1.5 to 5 µM | – | – | – | –
9 | Nc1ncnn2cc(-c3cnco3)c(-c3ccc(NC(=O)Nc4cc(F)cc(C(F)(F)F)c4)cc3)c12 [Example 159, N-{4-[4-amino-6-(1,3-oxazol-5-yl)pyrrolo[2,1-f][1,2,4]triazin-5-yl]phenyl}-N′-[3-fluoro-5-(trifluoromethyl)phenyl]urea] | – | – | 10 to 100 nM | 100 to 500 nM | < 1.5 µM | < 1.5 µM | > 0.5 µM | > 0.5 µM | – | –
10 | Nc1ncnn2cc(-c3cnco3)c(-c3ccc(NC(=O)Nc4ccc(F)c(C(F)(F)F)c4)cc3)c12 [Example 162, N-{4-[4-amino-6-(1,3-oxazol-5-yl)pyrrolo[2,1-f][1,2,4]triazin-5-yl]phenyl}-N′-[4-fluoro-3-(trifluoromethyl)phenyl]urea] | – | – | 10 to 100 nM | 100 to 500 nM | < 1.5 µM | 1.5 to 5 µM | > 0.5 µM | – | – | –
11 | N#Cc1cn2ncnc(N)c2c1-c1ccc(NC(=O)Nc2cc(C(F)(F)F)ccc2F)cc1 [Example 99, N-[4-(4-amino-6-cyanopyrrolo[2,1-f][1,2,4]triazin-5-yl)phenyl]-N′-[2-fluoro-5-(trifluoromethyl)phenyl]urea] | – | – | 100 to 500 nM | < 100 nM | 1.5 to 5 µM | < 1.5 µM | – | > 0.5 µM | < 50% | > 50%
12 | CC(=O)c1cn2ncnc(N)c2c1-c1ccc(NC(=O)Nc2cc(C(F)(F)F)ccn2)cc1 [Example 233, N-[4-(6-acetyl-4-aminopyrrolo[2,1-f][1,2,4]triazin-5-yl)phenyl]-N′-[4-(trifluoromethyl)pyridin-2-yl]urea] | – | – | 10 to 100 nM | 100 to 500 nM | 1.5 to 5 µM | 1.5 to 5 µM | – | – | – | –
13 | CCOCc1cn2ncnc(N)c2c1-c1ccc(NC(=O)Nc2cc(C(F)(F)F)ccn2)cc1 [Example 218, N-{4-[4-amino-6-(ethoxymethyl)pyrrolo[2,1-f][1,2,4]triazin-5-yl]phenyl}-N′-[4-(trifluoromethyl)pyridine-2-yl]urea] | – | – | < 10 nM | 100 to 500 nM | 5 to 10 µM | 5 to 10 µM | – | – | – | –
14 | Nc1ncnn2cc(-c3nc(CO)co3)c(-c3ccc(NC(=O)Nc4cc(C(F)(F)F)ccn4)cc3)c12 [Example 234, N-(4-{4-amino-6-[4-(hydroxymethyl)-1,3-oxazol-2-yl]pyrrolo[2,1-f][1,2,4]triazin-5-yl}phenyl)-N′-[4-(trifluoromethyl)pyridin-2-yl]urea] | – | – | 10 to 100 nM | 100 to 500 nM | 1.5 to 5 µM | 1.5 to 5 µM | – | – | – | –
15 | Nc1ncnn2cc(C(=O)NCC(F)(F)F)c(-c3ccc(NC(=O)Nc4cc(C(F)(F)F)ccc4F)cc3)c12 [Example 70, 4-amino-5-{4-[({[2-fluoro-5-(trifluoromethyl)phenyl]amino}carbonyl)amino]phenyl}-N-(2,2,2-trifluoroethyl)pyrrolo[2,1-f][1,2,4]triazine-6-carboxamide] | – | – | < 10 nM | < 100 nM | – | – | < 0.5 µM | < 0.5 µM | > 50% | –
16 | N#CCc1cn2ncnc(N)c2c1-c1ccc(NC(=O)Nc2cc(C(F)(F)F)ccn2)cc1 [Example 226, N-{4-[4-amino-6-(cyanomethyl)pyrrolo[2,1-f][1,2,4]triazin-5-yl]phenyl}-N′-[4-(trifluoromethyl)pyridin-2-yl]urea] | – | – | < 10 nM | 100 to 500 nM | 1.5 to 5 µM | 1.5 to 5 µM | – | – | – | –
